Results taken from patent publication US20140120087A1, “TRIAZOLOPYRIDINES” (BAYER INTELLECTUAL PROPERTY GMBH, priority 2011, published 2014).
pIC50: −log10 of the molar value.

Columns and labels:
[1] = Hydrolytic stability assay at pH 2; format: physicochemical; details: buffer pH 2, 37° C., compounds of the invention
Outline: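 Compound from a 10 mM DMSO stock was diluted in acetonitrile, added to pH 2 buffer and incubated at 37° C. HPLC injections were made at time zero and after 1, 2 and 24 hrs. Decay (%) was calculated from peak areas relative to the time-zero injection.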

Mps-1 kinase [2] = target: T1, Mps-1 kinase (Homo sapiens, UniProt P33981); assay: Mps-1 kinase assay with 2 mM ATP (TR-FRET)
T1 sequence (P33981 1-857): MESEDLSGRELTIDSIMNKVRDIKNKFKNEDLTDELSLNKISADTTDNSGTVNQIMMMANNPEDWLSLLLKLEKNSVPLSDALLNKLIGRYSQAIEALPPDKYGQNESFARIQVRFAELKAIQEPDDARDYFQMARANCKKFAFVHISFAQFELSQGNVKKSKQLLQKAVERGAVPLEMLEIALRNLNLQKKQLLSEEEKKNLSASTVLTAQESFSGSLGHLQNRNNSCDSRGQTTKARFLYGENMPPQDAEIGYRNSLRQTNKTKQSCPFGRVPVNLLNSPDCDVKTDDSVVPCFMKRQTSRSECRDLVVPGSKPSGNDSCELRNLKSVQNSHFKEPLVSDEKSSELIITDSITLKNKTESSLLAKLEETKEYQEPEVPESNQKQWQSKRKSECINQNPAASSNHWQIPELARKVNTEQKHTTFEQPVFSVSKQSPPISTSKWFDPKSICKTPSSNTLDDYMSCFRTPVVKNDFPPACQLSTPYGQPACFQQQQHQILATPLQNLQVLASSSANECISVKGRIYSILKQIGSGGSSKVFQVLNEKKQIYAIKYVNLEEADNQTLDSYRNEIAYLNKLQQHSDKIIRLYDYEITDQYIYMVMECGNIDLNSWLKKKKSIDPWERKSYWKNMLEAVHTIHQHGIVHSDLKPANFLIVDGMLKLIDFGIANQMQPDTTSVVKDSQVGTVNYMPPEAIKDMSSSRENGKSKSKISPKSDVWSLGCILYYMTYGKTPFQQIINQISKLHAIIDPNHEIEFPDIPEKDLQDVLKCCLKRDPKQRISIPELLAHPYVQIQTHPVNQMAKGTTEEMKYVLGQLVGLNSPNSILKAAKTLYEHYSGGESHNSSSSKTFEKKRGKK

Mps-1 kinase [3] = target: T1, Mps-1 kinase; assay: Mps-1 kinase assay with 10 μM ATP (TR-FRET)

Structure (SMILES) | Hydrolysis at pH 2; Decay in % after 24 h [1] | pIC50 (Mps-1 kinase [2]) | pIC50 (Mps-1 kinase [3])
CCOc1cc(C(=O)N(CC)CCOC)ccc1Nc1nc2ccc(-c3ccc(NC(=O)Cc4ccc(F)cc4)cc3)cn2n1 [Example 01.18, 3-ethoxy-N-ethyl-4-{[6-(4-{[(4-fluorophenyl)acetyl]amino}phenyl)[1,2,4]-triazolo[1,5-α]pyridin-2-yl]amino}-N-(2-methoxyethyl)benzamide] | <10% | ≥ 9.00 | ≥ 9.00
COc1cc(C(=O)NCC(C)(C)O)ccc1Nc1nc2ccc(-c3ccc(NC(=O)Cc4ccc(F)cc4)cc3)cn2n1 [Example 01.12, 4-{[6-(4-{[(4-fluorophenyl)acetyl]amino}phenyl)[1,2,4]triazolo[1,5-α]-pyridin-2-yl]amino}-N-(2-hydroxy-2-methylpropyl)-3-methoxybenzamide] | <10% | ≥ 9.00 | ≥ 9.00
CCN(CC)C(=O)c1ccc(Nc2nc3ccc(-c4ccc(NC(=O)Cc5ccc(F)cc5)cc4)cn3n2)c(OCC2CC2)c1 [Example 01.24, 3-(cyclopropylmethoxy)-N,N-diethyl-4-{[6-(4-{[(4-fluorophenyl)acetyl]-amino}phenyl)[1,2,4]triazolo[1,5-α]pyridin-2-yl]amino}benzamide] | <10% | 8.92 | ≥ 9.00
COc1cc(C(=O)NCCO)ccc1Nc1nc2ccc(-c3ccc(NC(=O)Cc4ccc(F)cc4)cc3)cn2n1 [Example 01.6, 4-{[6-(4-{[(4-fluorophenyl)acetyl]amino}phenyl)[1,2,4]triazolo[1,5-α]-pyridin-2-yl]amino}-N-(2-hydroxyethyl)-3-methoxybenzamide] | <10% | ≥ 9.00 | ≥ 9.00
CNCCN(C)C(=O)c1ccc(Nc2nc3ccc(-c4ccc(NC(=O)Cc5ccc(F)cc5)cc4)cn3n2)c(OC)c1 [Example 01.20, 4-{[6-(4-{[(4-fluorophenyl)acetyl]amino}phenyl)[1,2,4]triazolo[1,5-α]-pyridin-2-yl]amino}-3-methoxy-N-methyl-N-[2-(methylamino)ethyl]-benzamide] | <10% | ≥ 9.00 | ≥ 9.00
COc1cc(C(=O)NC(C)(C)CO)ccc1Nc1nc2ccc(-c3ccc(NC(=O)Cc4ccc(F)cc4)cc3)cn2n1 [Example 01.13, 4-{[6-(4-{[(4-fluorophenyl)acetyl]amino}phenyl)[1,2,4]triazolo[1,5-α]-pyridin-2-yl]amino}-N-(1-hydroxy-2-methylpropan-2-yl)-3-methoxy-benzamide] | <10% | ≥ 9.00 | ≥ 9.00
CCN(CC)C(=O)c1ccc(Nc2nc3ccc(-c4ccc(NC(=O)Cc5ccc(F)cc5)cc4)cn3n2)c(OC(C)C)c1 [Example 01.25, N,N-diethyl-4-{[6-(4-{[(4-fluorophenyl)acetyl]amino}phenyl)[1,2,4]triazolo-[1,5-α]pyridin-2-yl]amino}-3-isopropoxybenzamide] | <10% | 8.89 | ≥ 9.00
CC(C)(O)CNC(=O)c1ccc(Nc2nc3ccc(-c4ccc(NC(=O)Cc5ccc(F)cc5)cc4)cn3n2)c(OCC(F)(F)F)c1 [Example 01.29, 4-{[6-(4-{[(4-fluorophenyl)acetyl]amino}phenyl)[1,2,4]triazolo[1,5-α]-pyridin-2-yl]amino}-N-(2-hydroxy-2-methylpropyl)-3-(2,2,2-trifluoro-ethoxy)benzamide] | <10% | ≥ 9.00 | ≥ 9.00
COc1cc(C(=O)NC(C)(C)C)ccc1Nc1nc2ccc(-c3ccc(NC(=O)Cc4ccc(F)cc4)cc3)cn2n1 [Example 01.5, N-tert-butyl-4-{[6-(4-{[(4-fluorophenyl)acetyl]amino}phenyl)[1,2,4]-triazolo[1,5-α]pyridin-2-yl]amino}-3-methoxybenzamide] | <10% | ≥ 9.00 | ≥ 9.00
CCOc1cc(C(=O)N(C)CCO)ccc1Nc1nc2ccc(-c3ccc(NC(=O)Cc4ccc(F)cc4)cc3)cn2n1 [Example 01.19, 3-ethoxy-4-{[6-(4-{[(4-fluorophenyl)acetyl]amino}phenyl)[1,2,4]triazolo-[1,5-α]pyridin-2-yl]amino}-N-(2-hydroxyethyl)-N-methylbenzamide] | <10% | ≥ 9.00 | ≥ 9.00

Continued, values first:

Hydrolysis at pH 2; Decay in % after 24 h [1] | pIC50 (Mps-1 kinase [2]) | pIC50 (Mps-1 kinase [3]) | Structure (SMILES)
<10% | 8.66 | ≥ 9.00 | COc1cc(C(=O)N(C)CCN(C)C(C)=O)ccc1Nc1nc2ccc(-c3ccc(C(=O)NCc4ccc(F)cc4)cc3)cn2n1 [Example 02.9, N-{2-[acetyl(methyl)amino]ethyl}-4-[(6-{4-[(4-fluorobenzyl)carbamoyl]-phenyl}[1,2,4]triazolo[1,5-α]pyridin-2-yl)amino]-3-methoxy-N-methylbenzamide]
<10% | 8.77 | ≥ 9.00 | CCNC(=O)c1ccc(Nc2nc3ccc(-c4ccc(C(=O)NCc5ccc(F)cc5)cc4)cn3n2)c(OC)c1 [Example 02.20, N-ethyl-4-[(6-{4-[(4-fluorobenzyl)carbamoyl]phenyl}[1,2,4]triazolo[1,5-α]-pyridin-2-yl)amino]-3-methoxybenzamide]
<10% | 8.96 | ≥ 9.00 | COc1cc(C(=O)NCCO)ccc1Nc1nc2ccc(-c3ccc(C(=O)NCc4ccc(F)cc4)cc3)cn2n1 [Example 02.1, 4-[(6-{4-[(4-fluorobenzyl)carbamoyl]phenyl}[1,2,4]triazolo[1,5-α]pyridin-2-yl)amino]-N-(2-hydroxyethyl)-3-methoxybenzamide]
<10% | 8.23 | ≥ 9.00 | Cc1cc(N(C)C)ccc1Nc1nc2ccc(-c3ccc(C(=O)NCc4ccc(F)cc4)cc3)cn2n1 [Example 02.24, 4-(2-{[4-(dimethylamino)-2-methylphenyl]amino}[1,2,4]triazolo[1,5-α]-pyridin-6-yl)-N-(4-fluorobenzyl)benzamide]
<10% | 8.64 | ≥ 9.00 | CCOCCNC(=O)c1ccc(Nc2nc3ccc(-c4ccc(C(=O)NCc5ccc(F)cc5)cc4)cn3n2)c(OC)c1 [Example 02.10, N-(2-ethoxyethyl)-4-[(6-{4-[(4-fluorobenzyl)carbamoyl]phenyl}[1,2,4]-triazolo[1,5-α]pyridin-2-yl)amino]-3-methoxybenzamide]
<10% | 8.37 | ≥ 9.00 | COc1cc(C(=O)NC(C)(C)CO)ccc1Nc1nc2ccc(-c3ccc(C(=O)NCc4ccc(F)cc4)c(OC)c3)cn2n1 [Example 08.1, N-(4-fluorobenzyl)-4-[2-({4-[(1-hydroxy-2-methylpropan-2-yl)carbamoyl]-2-methoxyphenyl}amino)[1,2,4]triazolo[1,5-α]pyridin-6-yl]-2-methoxybenz-amide]
<10% | 8.37 | ≥ 9.00 | COc1cc(S(C)(=O)=O)ccc1Nc1nc2ccc(-c3ccc(C(=O)NCc4ccc(F)cc4)cc3)cn2n1 [Example 02.6, N-(4-fluorobenzyl)-4-(2-{[2-methoxy-4-(methylsulfonyl)phenyl]amino}-[1,2,4]triazolo[1,5-α]pyridin-6-yl)benzamide]
<10% | ≥ 9.00 | ≥ 9.00 | COc1cc(C(=O)NCCS(C)(=O)=O)ccc1Nc1nc2ccc(-c3ccc(C(=O)NCc4ccc(F)cc4)cc3)cn2n1 [Example 02.15, 4-[(6-{4-[(4-fluorobenzyl)carbamoyl]phenyl}[1,2,4]triazolo[1,5-α]pyridin-2-yl)amino]-3-methoxy-N-[2-(methylsulfonyl)ethyl]benzamide]
<10% | 8.16 | ≥ 9.00 | COc1cc(C(=O)NC(C)(C)CO)ccc1Nc1nc2ccc(-c3ccc(C(=O)NCc4ccc(F)cc4)c(F)c3)cn2n1 [Example 03.1, 2-fluoro-N-(4-fluorobenzyl)-4-[2-({4-[(1-hydroxy-2-methylpropan-2-yl)-carbamoyl]-2-methoxyphenyl}amino)[1,2,4]triazolo[1,5-α]pyridin-6-yl]-benzamide]
<10% | 8.62 | ≥ 9.00 | COc1cc(C(=O)NC(C)(C)C)ccc1Nc1nc2ccc(-c3ccc(C(=O)NCc4ccc(F)cc4)cc3)cn2n1 [Example 02.14, N-tert-butyl-4-[(6-{4-[(4-fluorobenzyl)carbamoyl]phenyl}[1,2,4]triazolo-[1,5-α]pyridin-2-yl)amino]-3-methoxybenzamide]
